Experimental data taken from patent US12479847B2 (DANA-FARBER CANCER INSTITUTE, INC., priority 2019, dated 2025).

Tests used:
Assay in all cases: KINOMEscan (ScanMAX) kinase profiling
Format in all cases: binding
panel of 468 kinases [1] = biological target: T1, panel of 468 kinases (Homo sapiens, UniProt O60285); settings: ARKS; 1 μM; read-out: % control
T1 construct: purchased KINOMEscan (ScanMAX) service
T1 sequence (O60285 1-661): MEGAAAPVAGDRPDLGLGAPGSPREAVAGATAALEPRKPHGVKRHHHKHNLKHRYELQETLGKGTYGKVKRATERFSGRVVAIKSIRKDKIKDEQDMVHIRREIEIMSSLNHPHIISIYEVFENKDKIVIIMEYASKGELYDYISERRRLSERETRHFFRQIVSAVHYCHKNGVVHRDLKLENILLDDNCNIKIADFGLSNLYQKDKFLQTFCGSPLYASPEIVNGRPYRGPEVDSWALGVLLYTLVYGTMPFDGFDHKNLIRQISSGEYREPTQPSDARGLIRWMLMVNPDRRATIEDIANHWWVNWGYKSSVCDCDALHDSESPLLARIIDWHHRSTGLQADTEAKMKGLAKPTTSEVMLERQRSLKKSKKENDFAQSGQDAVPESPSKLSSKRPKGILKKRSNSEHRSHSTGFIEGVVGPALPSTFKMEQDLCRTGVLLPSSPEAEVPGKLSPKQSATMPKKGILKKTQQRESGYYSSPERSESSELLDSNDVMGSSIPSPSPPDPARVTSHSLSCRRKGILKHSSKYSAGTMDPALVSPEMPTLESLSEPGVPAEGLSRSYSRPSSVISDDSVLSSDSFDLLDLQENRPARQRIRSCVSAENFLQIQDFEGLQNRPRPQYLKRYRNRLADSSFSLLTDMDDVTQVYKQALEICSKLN

panel of 468 kinases [2] = biological target: T2, panel of 468 kinases (Homo sapiens, UniProt O95819); settings: MAP4K4; 1 μM; read-out: % control
T2 construct: purchased KINOMEscan (ScanMAX) service

panel of 468 kinases [3] = biological target: T3, panel of 468 kinases (Homo sapiens, UniProt P09769); settings: FGR; 1 μM; read-out: % control
T3 construct: purchased KINOMEscan (ScanMAX) service

panel of 468 kinases [4] = biological target: T4, panel of 468 kinases (Homo sapiens, UniProt P24941); settings: CDK2; 1 μM; read-out: % control
T4 construct: purchased KINOMEscan (ScanMAX) service

panel of 468 kinases [5] = biological target: T5, panel of 468 kinases (Homo sapiens, UniProt P54646); settings: AMPK-alpha2; 1 μM; read-out: % control
T5 construct: purchased KINOMEscan (ScanMAX) service

panel of 468 kinases [6] = biological target: T6, panel of 468 kinases (Homo sapiens, UniProt Q8WXR4); settings: MYO3B; 1 μM; read-out: % control
T6 construct: purchased KINOMEscan (ScanMAX) service
T6 sequence (Q8WXR4 1-1341): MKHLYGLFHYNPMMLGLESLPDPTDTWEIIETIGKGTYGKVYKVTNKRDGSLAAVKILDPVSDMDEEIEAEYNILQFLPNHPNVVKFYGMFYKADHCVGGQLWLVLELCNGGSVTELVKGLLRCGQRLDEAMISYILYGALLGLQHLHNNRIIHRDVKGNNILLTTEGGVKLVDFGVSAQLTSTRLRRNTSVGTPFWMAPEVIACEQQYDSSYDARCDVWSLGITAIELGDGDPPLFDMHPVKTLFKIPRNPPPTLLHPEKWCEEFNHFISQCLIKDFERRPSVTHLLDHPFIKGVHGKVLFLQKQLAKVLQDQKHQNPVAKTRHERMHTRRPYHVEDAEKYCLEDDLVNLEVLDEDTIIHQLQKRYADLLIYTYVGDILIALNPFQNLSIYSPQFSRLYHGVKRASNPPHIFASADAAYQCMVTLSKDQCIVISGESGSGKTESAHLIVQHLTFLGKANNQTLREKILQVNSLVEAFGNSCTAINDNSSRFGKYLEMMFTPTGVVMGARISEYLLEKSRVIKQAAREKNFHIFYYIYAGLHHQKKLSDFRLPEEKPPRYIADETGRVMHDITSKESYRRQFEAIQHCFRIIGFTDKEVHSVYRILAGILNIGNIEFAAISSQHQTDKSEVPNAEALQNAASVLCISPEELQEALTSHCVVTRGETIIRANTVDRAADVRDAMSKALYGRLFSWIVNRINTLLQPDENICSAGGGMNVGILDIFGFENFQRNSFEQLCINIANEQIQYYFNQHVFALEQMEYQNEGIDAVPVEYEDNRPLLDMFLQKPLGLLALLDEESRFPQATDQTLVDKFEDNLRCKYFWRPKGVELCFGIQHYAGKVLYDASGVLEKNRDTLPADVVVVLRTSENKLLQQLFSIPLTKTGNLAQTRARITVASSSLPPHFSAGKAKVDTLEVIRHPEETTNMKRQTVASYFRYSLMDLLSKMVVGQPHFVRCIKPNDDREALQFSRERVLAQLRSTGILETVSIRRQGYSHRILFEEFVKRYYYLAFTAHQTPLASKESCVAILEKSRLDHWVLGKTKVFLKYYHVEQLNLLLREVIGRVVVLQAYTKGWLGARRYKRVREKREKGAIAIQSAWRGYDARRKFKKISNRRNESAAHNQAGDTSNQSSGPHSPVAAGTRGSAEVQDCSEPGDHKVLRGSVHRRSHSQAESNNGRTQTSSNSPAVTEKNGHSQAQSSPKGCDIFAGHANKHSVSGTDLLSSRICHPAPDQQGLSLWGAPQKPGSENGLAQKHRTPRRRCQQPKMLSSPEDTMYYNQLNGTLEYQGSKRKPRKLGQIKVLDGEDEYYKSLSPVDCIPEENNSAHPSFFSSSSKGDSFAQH

panel of 468 kinases [7] = biological target: T7, panel of 468 kinases (Homo sapiens, UniProt Q96J92); settings: WNK4; 1 μM; read-out: % control
T7 construct: purchased KINOMEscan (ScanMAX) service
T7 sequence (Q96J92 whole entry): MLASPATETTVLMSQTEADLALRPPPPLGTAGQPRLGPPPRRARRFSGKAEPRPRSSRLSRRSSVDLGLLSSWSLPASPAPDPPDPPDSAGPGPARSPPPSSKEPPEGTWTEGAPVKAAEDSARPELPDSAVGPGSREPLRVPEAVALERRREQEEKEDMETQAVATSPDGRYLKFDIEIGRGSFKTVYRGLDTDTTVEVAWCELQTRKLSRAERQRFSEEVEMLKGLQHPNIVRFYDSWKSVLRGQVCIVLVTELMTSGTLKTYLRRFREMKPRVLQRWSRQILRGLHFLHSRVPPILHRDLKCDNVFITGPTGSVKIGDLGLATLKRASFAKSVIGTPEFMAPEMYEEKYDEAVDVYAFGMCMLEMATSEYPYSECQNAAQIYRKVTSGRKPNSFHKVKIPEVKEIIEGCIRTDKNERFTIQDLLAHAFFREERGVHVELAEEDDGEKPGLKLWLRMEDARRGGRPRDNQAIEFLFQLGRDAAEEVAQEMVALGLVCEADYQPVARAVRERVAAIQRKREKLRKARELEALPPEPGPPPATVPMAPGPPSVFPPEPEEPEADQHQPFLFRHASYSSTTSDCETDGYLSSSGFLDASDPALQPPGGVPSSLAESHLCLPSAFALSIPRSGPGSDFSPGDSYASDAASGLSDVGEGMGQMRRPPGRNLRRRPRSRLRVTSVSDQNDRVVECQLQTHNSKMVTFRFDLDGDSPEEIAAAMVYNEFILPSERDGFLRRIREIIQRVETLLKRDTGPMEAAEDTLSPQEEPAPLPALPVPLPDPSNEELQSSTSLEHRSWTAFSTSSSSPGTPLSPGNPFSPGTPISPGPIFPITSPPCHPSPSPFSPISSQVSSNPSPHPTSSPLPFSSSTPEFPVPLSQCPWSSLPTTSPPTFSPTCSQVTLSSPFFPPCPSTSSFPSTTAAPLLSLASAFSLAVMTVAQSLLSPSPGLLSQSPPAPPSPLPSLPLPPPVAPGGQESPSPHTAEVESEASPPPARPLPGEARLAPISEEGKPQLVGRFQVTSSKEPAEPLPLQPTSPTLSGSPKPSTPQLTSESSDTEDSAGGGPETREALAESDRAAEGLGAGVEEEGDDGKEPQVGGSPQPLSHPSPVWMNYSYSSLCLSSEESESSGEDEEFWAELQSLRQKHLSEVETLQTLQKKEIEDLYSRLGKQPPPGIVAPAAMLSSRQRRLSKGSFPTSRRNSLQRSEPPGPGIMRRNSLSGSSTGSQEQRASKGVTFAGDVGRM

T2 sequence (O95819 whole entry): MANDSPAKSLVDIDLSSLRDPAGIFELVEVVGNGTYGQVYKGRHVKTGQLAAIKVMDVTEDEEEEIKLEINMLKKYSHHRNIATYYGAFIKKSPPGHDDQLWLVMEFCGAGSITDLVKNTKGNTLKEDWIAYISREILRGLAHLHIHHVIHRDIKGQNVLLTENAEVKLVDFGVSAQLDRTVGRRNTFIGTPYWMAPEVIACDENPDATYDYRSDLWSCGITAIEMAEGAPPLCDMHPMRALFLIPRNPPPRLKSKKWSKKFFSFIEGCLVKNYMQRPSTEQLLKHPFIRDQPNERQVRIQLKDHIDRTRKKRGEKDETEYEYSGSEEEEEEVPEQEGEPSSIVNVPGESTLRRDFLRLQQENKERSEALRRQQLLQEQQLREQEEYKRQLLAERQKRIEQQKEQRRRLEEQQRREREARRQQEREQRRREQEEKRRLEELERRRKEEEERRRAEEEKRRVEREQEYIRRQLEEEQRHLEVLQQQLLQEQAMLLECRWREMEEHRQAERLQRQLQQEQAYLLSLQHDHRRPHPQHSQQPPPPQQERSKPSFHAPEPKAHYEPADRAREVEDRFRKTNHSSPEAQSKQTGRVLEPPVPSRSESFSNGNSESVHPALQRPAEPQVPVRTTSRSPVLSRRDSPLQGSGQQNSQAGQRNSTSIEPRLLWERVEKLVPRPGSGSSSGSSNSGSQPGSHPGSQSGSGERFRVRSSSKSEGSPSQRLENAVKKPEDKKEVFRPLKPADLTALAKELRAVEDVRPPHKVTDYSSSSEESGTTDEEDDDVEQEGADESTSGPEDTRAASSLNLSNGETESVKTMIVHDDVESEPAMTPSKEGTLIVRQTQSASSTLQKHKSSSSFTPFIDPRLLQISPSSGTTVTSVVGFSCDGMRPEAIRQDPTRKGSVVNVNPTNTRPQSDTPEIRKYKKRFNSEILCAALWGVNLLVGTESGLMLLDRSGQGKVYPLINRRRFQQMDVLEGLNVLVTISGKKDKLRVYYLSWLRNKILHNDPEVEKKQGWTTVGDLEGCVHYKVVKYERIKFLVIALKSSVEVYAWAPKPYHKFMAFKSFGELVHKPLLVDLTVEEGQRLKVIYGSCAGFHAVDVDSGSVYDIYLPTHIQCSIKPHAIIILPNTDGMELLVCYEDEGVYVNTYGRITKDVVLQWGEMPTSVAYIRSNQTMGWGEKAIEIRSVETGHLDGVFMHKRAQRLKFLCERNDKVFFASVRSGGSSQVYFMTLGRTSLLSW
T3 sequence (P09769 whole entry): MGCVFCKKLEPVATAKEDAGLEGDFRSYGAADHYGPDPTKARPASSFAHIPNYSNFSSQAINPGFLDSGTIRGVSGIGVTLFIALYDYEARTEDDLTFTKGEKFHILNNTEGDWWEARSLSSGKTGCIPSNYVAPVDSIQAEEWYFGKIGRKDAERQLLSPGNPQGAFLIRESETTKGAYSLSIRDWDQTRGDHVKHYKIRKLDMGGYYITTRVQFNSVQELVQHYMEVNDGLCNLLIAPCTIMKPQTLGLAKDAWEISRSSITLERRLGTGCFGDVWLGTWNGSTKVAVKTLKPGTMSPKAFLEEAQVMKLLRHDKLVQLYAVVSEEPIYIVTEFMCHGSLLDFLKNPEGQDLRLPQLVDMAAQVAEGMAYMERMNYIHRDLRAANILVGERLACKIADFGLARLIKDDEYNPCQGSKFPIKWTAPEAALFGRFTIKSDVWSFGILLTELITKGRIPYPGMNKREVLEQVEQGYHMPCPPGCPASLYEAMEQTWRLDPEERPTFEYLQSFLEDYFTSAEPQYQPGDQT
T5 sequence (P54646 whole entry): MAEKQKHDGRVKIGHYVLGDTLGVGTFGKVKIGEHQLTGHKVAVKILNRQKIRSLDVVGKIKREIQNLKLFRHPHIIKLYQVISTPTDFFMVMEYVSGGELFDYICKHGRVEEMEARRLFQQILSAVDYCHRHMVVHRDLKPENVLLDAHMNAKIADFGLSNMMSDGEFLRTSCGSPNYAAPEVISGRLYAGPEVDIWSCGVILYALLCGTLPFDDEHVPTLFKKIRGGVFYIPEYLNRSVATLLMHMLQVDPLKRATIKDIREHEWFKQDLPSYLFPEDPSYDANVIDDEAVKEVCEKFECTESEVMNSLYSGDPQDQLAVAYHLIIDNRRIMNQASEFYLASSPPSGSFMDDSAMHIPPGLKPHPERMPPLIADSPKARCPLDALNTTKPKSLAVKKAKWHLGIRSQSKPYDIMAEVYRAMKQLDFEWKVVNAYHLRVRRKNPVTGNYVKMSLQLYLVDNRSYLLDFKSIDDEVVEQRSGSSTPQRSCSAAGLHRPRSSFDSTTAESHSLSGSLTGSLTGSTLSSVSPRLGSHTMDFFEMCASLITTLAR

Compound | remaining binding at 1 µM (panel of 468 kinases [1]) [%] | remaining binding at 1 µM (panel of 468 kinases [2]) [%] | remaining binding at 1 µM (panel of 468 kinases [3]) [%] | remaining binding at 1 µM (panel of 468 kinases [4]) [%] | remaining binding at 1 µM (panel of 468 kinases [5]) [%] | remaining binding at 1 µM (panel of 468 kinases [6]) [%] | remaining binding at 1 µM (panel of 468 kinases [7]) [%]
CNc1nc(Nc2ccc(S(=O)(=O)N3CCC(N4CCOCC4)CC3)cc2OC)nc2[nH]cc(Cl)c12 [Compound 12, 5-chloro-N2-(2-methoxy-4-((4-morpholinopiperidin-1-yl)sulfonyl)phenyl)-N4-methyl-7H-pyrrolo[2,3-d]pyrimidine-2,4-diamine] | 100 | 95 | 100 | 100 | 82 | 95 | 61
CNc1nc(Nc2ccc(C(=O)N3CCC(N4CCOCC4)CC3)c3c2OCO3)nc2[nH]cc(Cl)c12 [Compound 75, (7-((5-chloro-4-(methylamino)-7H-pyrrolo[2,3-d]pyrimidin-2-yl)amino)benzo[d][1,3]dioxol-4-yl)(4-morpholinopiperidin-1-yl)methanone] | 23 | 54 | 100 | 100 | 87 | 100 | 66
CNc1nc(Nc2ccc(P3(=O)CCN(C4CCOCC4)CC3)cc2OC)nc2[nH]cc(Cl)c12 [Compound 77, 4-(4-((5-chloro-4-(methylamino)-7H-pyrrolo[2,3-d]pyrimidin-2-yl)amino)-3-methoxyphenyl)-1-(tetrahydro-2H-pyran-4-yl)-1,4-azaphosphinane 4-oxide] | 96 | 100 | 100 | 100 | 90 | 100 | 66
